From paper PMC6792352, “Limited Chemical Structural Diversity Found to Modulate Thyroid Hormone Receptor in the Tox21 Chemical Library” (Environmental Health Perspectives, 2019)
Where a name gives a salt, the structure may show the parent alone.

test: in vitro; details: rat, gh3-tre-luc cells, AC50 (uM) modified / 1000

Compound | CC50 at 24 h [µM]
CC(=O)OCC(=O)[C@@]12OC(C)(C)O[C@@H]1C[C@H]1[C@@H]3C[C@H](F)C4=CC(=O)C=C[C@]4(C)[C@@]3(F)[C@@H](O)C[C@@]12C [Fluocinonide] | > 20
CCCCS(=O)(=O)Cl [Butane-1-sulfonyl chloride] | > 90
O=C(C[S+]([O-])Cc1ccco1)NC/C=C\COc1cc(CN2CCCCC2)ccn1 (centres unmarked) [Lafutidine] | > 50
O=C1c2cccc(O)c2C(=O)c2c(O)cc(CO)cc21 [Aloe-emodin] | > 90
[2H]C([2H])([2H])[C@H](N)Cc1ccccc1 [D-Amphetamine-d3 hemisulfate] | > 50
COCCCC/C(=N\OCCN)c1ccc(C(F)(F)F)cc1 [Fluvoxamine] | 15
NCCc1ccc(O)c(O)c1 [Dopamine hydrochloride] | 55.3
CCCCP(CCCC)CCCC [Tributylphosphine] | > 90
CC[C@H]1OC(=O)[C@H](C)[C@@H](O[C@H]2C[C@@](C)(OC)[C@@H](O)[C@H](C)O2)[C@H](C)[C@@H](O[C@@H]2O[C@H](C)C[C@H](N(C)C)[C@H]2O)[C@](C)(O)C[C@@H](C)[C@@H]2N[C@@H](COCCOC)O[C@H]([C@H]2C)[C@]1(C)O [Dirithromycin] | > 50
CCCCC(=O)Cl [Valeryl chloride] | > 90
Nc1ccc([N+](=O)[O-])c(N)c1 [4-Nitro-1,3-benzenediamine] | 64.4
CC1=C(O)C(=O)CO1 [4-Hydroxy-5-methyl-3-furanone] | > 90
Oc1ccc2c3c1O[C@H]1[C@@H](O)CC[C@@]4(O)[C@@H](C2)N(CC2CCC2)CC[C@]314 [Nalbuphine] | > 50
CCCCCCCCCCCCCCCC(=O)O [Hexadecanoic acid] | > 90
O=S(=O)(O)c1cccc2ccccc12 [Sodium 1-naphthalenesulfonate] | > 90
Cc1cccc(Nc2ncccc2C(=O)O)c1C [Nixylic acid] | > 50
CC[C@@H](C(=O)[C@@H](C)[C@@H](O)[C@H](C)[C@@H]1O[C@@H]([C@@H](CC)C(=O)O)CC[C@@H]1C)[C@H]1O[C@]2(C=C[C@@H](O)[C@]3(CC[C@@](C)([C@H]4CC[C@](O)(CC)[C@H](C)O4)O3)O2)[C@H](C)C[C@@H]1C [Salinomycin sodium] | 0.823
Nc1nnc(S)[nH]1 [5-Amino-1,2-dihydro-3H-1,2,4-triazole-3-thione] | > 90
CCC=CCCOC(=O)c1ccccc1O (stereo in doubt) [(3Z)-Hex-3-en-1-yl salicylate] | > 90
N#CC(C#N)=Cc1cc(O)c(O)c(O)c1 [Tyrphostin 25] | 28.5
O=S(=O)(O)CCN1CCN(CCO)CC1 [Sodium 2-[4-(2-hydroxyethyl)piperazin-1-yl]ethanesulfonate] | > 90
O=S1(=O)CC=CC1 [3-Sulfolene] | > 90
O=C(NC(=O)c1ccccc1Cl)Nc1ccc(OC(F)(F)F)cc1 [Triflumuron] | > 90

Compound | CC50 at 24 h [µM]
CCCc1ncc(C[n+]2ccccc2C)c(N)n1 [Amprolium hydrochloride] | > 20
CCCCCCCCC=O [Nonanal] | > 90
O=C(c1ccc(O)cc1)c1ccc(O)c(O)c1O [2,3,4,4'-Tetrahydroxybenzophenone] | > 90
CC(C)C1CCC(Cc2ccc(Cl)cc2)C1(O)Cn1cncn1 (centres unmarked) [Ipconazole] | 41.7
c1ccsc1 [Thiophene] | > 90
COC(=O)CC(=O)OC [Dimethyl malonate] | > 100
CN1CCN(C2=Nc3cc(F)ccc3Cc3ccccc32)CC1 [Fluperlapine] | 11.9
CCCC(=O)N1CCCN(c2nc(N)c3cc(OC)c(OC)cc3n2)CC1 [Bunazosin hydrochloride] | > 50
CC(C)(C)c1cccc(C(C)(C)C)c1O [2,6-Di-tert-butylphenol] | > 90
c1cc2c3c(cccc3c1)CC2 [Acenaphthene] | > 90
CCC[C@@]1(CCc2ccccc2)CC(O)=C([C@H](CC)c2cccc(NS(=O)(=O)c3ccc(C(F)(F)F)cn3)c2)C(=O)O1 [Tipranavir] | > 50
CC(C)(C)c1ccc(S)cc1 [4-tert-Butylbenzenethiol] | > 90
CCCCCC1Nc2cc(C(F)(F)F)c(S(N)(=O)=O)cc2S(=O)(=O)N1 (centres unmarked) [Penflutizide] | > 50
Cc1cc2nc(N)sc2cc1C [2-Amino-5,6-dimethylbenzothiazole] | > 90
CCCc1nc(C)c2c(=O)[nH]c(-c3cc(S(=O)(=O)N4CCN(CC)CC4)ccc3OCC)nn12 [Vardenafil citrate] | > 50
CCC(C)n1c(=O)[nH]c(C)c(Br)c1=O (centres unmarked) [Bromacil] | > 90
COc1c(O[C@@H]2O[C@H](CO)[C@@H](O)[C@H](O)[C@H]2O)cc2c(c1OC)-c1ccc(SC)c(=O)cc1[C@@H](NC(C)=O)CC2 [Thiocolchicoside] | > 20
COC(=O)Cc1cccc2ccccc12 [Methyl 1-naphthaleneacetate] | > 90
Cc1cccc(C)c1NC(=O)CN1CCCC1=O [Nefiracetam] | > 50
C[N+]1(C)CCCCC1 [Mepiquat chloride] | > 90
CC(=O)CC(C)(C)C1CCCCC1 [4-Cyclohexyl-4-methyl-pentan-2-one] | > 90
C1CCNCC1 [Piperidine] | > 90
COCC(C)O (centres unmarked) [1-Methoxy-2-propanol] | > 90

Compound | CC50 at 24 h [µM]
COC(=O)C1CCC(C(=O)OC)CC1 (centres unmarked) [Dimethyl hexahydroterephthalate] | > 90
c1ccc2c(CC3=NCCN3)cccc2c1 [Naphazoline hydrochloride] | > 50
CCN1CCC2(CC1)COc1cc3c(cc12)N(C(=O)c1ccc(-c2ccc(-c4nnc(C)o4)cc2C)cc1)CC3 [SB236057A] | 3
CCCCCCCCCC/C=C/C1CC(=O)OC1=O (centres unmarked) [3-(Dodecenyl)dihydro-2,5-furandione] | > 90
CCN(CC)C(=O)Nc1ccc(OCC(O)CNC(C)(C)C)c(C(C)=O)c1 (centres unmarked) [Celiprolol hydrochloride] | > 50
Clc1ccc(Nc2nnc(Cc3ccncc3)c3ccccc23)cc1 [Vatalanib] | > 50
OCC(O)CN1CCN(c2ccccc2)CC1 (centres unmarked) [Dropropizine] | > 50
CC(CCC(=O)O)C(=O)O (centres unmarked) [2-Methylpentanedioic acid] | > 90
C=C1/C(=C\C=C2/CCC[C@]3(C)[C@@H]([C@H](C)CCCC(C)C)CC[C@@H]23)C[C@@H](O)C[C@@H]1O [Alfacalcidol] | 14.8
CC[N+](CC)(CC)CCOc1cccc(OCC[N+](CC)(CC)CC)c1OCC[N+](CC)(CC)CC [Gallamine triethiodide] | > 50
CC[C@@H](C(=O)[C@@H](C)[C@@H](O)[C@H](C)CCc1ccc(C)c(O)c1C(=O)O)[C@H]1O[C@](CC)([C@H]2CC[C@](O)(CC)[C@H](C)O2)C[C@@H]1C [Lasalocid sodium] | 2.85
C=C[C@](C)(O)CC[C@@H]1[C@@]2(C)CCCC(C)(C)[C@@H]2CC[C@@]1(C)O [Sclareol] | 29.3
Cn1c(=O)c2c(ncn2CCOC(=O)C(C)(C)Oc2ccc(Cl)cc2)n(C)c1=O [Etofylline clofibrate] | > 50
Cc1c(-c2cccnc2)c2ccccc2n1CCCCC(=O)O [UK-156819] | > 90
ClC=C(Cl)Cl [Trichloroethylene] | > 90
Cc1cc(O)c(C(C)(C)C)cc1C(C)(C)C [4,6-Di-tert-butyl-m-cresol] | 22.6
Nc1ccc2cc(S(=O)(=O)O)ccc2c1 [6-Aminonaphthalene-2-sulfonic acid] | > 90
CCCC[C@@H](CC)COC(=O)c1ccccc1C(=O)OC[C@@H](CC)CCCC [Di(2-ethylhexyl) phthalate] | > 90
CCCCCCCCCCCCOCCOS(=O)(=O)O [Sodium lauryl polyoxyethylene ether sulfate] | 41
O=C(O)C(=O)Cc1ccccc1 [Phenylpyruvic acid] | > 90
Cc1oc(-c2ccccc2)nc1CCOc1cccc2c1ccn2CCC(=O)O [PD-0333941] | 18.9
COCCCN [3-Methoxypropylamine] | > 90

same assay, conditions: rat, gh3-tre-luc cells, AC50 (uM) modified / 1000, Tox21_110001=Tox21_112607; viability, 1 nM T3 present, 24 h

Compound | CC50 at 24 h [µM]
CN1[C@H]2CC[C@@H]1[C@@H](C(=O)O)[C@@H](OC(=O)c1ccccc1)C2 [Benzoylecgonine] | > 50

same assay, conditions: rat, gh3-tre-luc cells, AC50 (uM) modified / 1000, Tox21_110001=Tox21_112853; viability, 1 nM T3 present, 24 h

Compound | CC50 at 24 h [µM]
CN1[C@H]2CC[C@@H]1[C@@H](C(=O)O)[C@@H](OC(=O)c1ccccc1)C2 [Benzoylecgonine] | > 100

same assay, conditions: rat, gh3-tre-luc cells, AC50 (uM) modified / 1000, Tox21_110001=Tox21_200937; viability, 1 nM T3 present, 24 h

Compound | CC50 at 24 h [µM]
O=[N+]([O-])c1cc(Cl)c(Cl)cc1Cl [2,4,5-Trichloronitrobenzene] | > 90

same assay, conditions: rat, gh3-tre-luc cells, AC50 (uM) modified / 1000, Tox21_110001=Tox21_201511; viability, 1 nM T3 present, 24 h

Compound | CC50 at 24 h [µM]
O=P(Oc1ccccc1)(Oc1ccccc1)Oc1ccccc1 [Triphenyl phosphate] | > 90

same assay, conditions: rat, gh3-tre-luc cells, AC50 (uM) modified / 1000, Tox21_110001=Tox21_201556; viability, 1 nM T3 present, 24 h

Compound | CC50 at 24 h [µM]
N#CC(c1ccccc1)c1ccccc1 [Diphenylacetonitrile] | > 90

same assay, conditions: rat, gh3-tre-luc cells, AC50 (uM) modified / 1000, Tox21_110001=Tox21_202858; viability, 1 nM T3 present, 24 h

Compound | CC50 at 24 h [µM]
COc1ccc(C=O)cc1O [3-Hydroxy-4-methoxy-benzaldehyde] | > 90

same assay, conditions: rat, gh3-tre-luc cells, AC50 (uM) modified / 1000, Tox21_110001=Tox21_301172; viability, 1 nM T3 present, 24 h

Compound | CC50 at 24 h [µM]
CCOP(=O)(OCC)OP(=O)(OCC)OCC [Tetraethyl pyrophosphate] | > 90

same assay, conditions: rat, gh3-tre-luc cells, AC50 (uM) modified / 1000, Tox21_110001=Tox21_302196; viability, 1 nM T3 present, 24 h

Compound | CC50 at 24 h [µM]
CC(C)C(C)(N)C#N (centres unmarked) [2-Amino-2,3-dimethylbutanenitrile] | > 90

same assay, conditions: rat, gh3-tre-luc cells, AC50 (uM) modified / 1000, Tox21_110001=Tox21_302219; viability, 1 nM T3 present, 24 h

Compound | CC50 at 24 h [µM]
CCOP(=S)(NC(C)C)Oc1ccccc1C(=O)OC(C)C (centres unmarked) [Isofenphos] | 78.7
